Assay results as given in ChEMBL document CHEMBL4421736, “INHIBITORS OF SARM1 NADase ACTIVITY AND USES THEREOF” (2018).
The source made the active and inactive calls. No cut-off for these calls is given here.

Columns and labels:
Type in all cases: cell-based
[1] = target: T1, NAD(+) hydrolase SARM1 (Mus musculus) (UniProt Q6PDS3); test: Inhibition of SARM1 in CD1 mouse DRG cells assessed as inhibition of axon degeneration by measuring reduction in NAD+ consumption rate at 5 uM added 30 mins prior to D4-Nam addition and measured 4 hrs post D4-Nam addition by LC-MS/MS analysis
T1 sequence (whole entry): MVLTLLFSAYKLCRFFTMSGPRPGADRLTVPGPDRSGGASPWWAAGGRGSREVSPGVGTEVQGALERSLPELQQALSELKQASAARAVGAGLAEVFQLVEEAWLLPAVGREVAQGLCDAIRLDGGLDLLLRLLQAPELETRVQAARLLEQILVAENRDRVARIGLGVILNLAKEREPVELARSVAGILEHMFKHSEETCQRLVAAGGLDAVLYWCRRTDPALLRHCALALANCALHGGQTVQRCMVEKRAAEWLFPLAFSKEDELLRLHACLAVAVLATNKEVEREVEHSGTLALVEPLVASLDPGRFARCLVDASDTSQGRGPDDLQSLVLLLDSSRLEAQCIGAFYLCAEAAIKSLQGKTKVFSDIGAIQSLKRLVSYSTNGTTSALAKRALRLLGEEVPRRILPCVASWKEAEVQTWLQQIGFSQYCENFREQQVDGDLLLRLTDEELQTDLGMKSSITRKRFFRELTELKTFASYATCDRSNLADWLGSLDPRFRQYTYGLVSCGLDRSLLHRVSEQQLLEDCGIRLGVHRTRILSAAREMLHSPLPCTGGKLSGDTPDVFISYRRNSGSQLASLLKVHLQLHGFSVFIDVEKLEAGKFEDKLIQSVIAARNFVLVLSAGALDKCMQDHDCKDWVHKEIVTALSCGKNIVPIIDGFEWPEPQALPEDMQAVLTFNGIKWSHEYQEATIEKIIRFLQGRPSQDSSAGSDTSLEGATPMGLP

[2] = target: T2, NAD(+) hydrolase SARM1 (Homo sapiens) (UniProt Q6SZW1); test: Substrate activity at StrepTag-tagged human SARM1 TIR (561 to 724 residues) expressed in HEK293T cells assessed as increase in NADase activity in presence of NAD+ incubated for 60 mins by HPLC analysis
T2 sequence (whole entry): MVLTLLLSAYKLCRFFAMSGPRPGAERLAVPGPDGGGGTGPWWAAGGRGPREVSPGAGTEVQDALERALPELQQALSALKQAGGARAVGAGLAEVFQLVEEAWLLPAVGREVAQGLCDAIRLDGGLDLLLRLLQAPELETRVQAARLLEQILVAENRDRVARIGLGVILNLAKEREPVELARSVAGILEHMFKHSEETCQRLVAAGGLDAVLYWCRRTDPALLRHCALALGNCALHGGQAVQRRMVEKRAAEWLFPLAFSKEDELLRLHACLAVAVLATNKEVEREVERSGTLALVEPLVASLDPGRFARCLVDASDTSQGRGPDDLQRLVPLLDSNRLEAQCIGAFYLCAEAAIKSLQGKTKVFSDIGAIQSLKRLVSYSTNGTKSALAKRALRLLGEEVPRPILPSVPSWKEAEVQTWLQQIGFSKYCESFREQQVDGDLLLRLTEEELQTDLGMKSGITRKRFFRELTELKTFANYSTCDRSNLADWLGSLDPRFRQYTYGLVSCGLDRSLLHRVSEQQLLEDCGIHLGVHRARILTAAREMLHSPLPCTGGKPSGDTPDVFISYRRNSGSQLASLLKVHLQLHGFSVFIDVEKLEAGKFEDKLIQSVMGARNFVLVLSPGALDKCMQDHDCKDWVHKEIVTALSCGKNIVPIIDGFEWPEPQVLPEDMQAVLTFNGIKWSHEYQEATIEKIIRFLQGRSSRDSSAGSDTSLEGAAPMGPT

[3] = target: T2, NAD(+) hydrolase SARM1 (Homo sapiens); test: Inhibition of StrepTag-tagged human SARM1 TIR (561 to 724 residues) expressed in NRK1-HEK293T cells assessed as reduction in NADase activity by measuring ADPR production at 150 uM pre-incubated up to 120 mins before NAD+ addition and further incubated for 60 mins by HPLC analysis; set-up: scale not given: the % may be the effect or the level left
[4] = target: T2, NAD(+) hydrolase SARM1 (Homo sapiens); test: Inhibition of StrepTag-tagged human SARM1 TIR (561 to 724 residues) expressed in HEK293T cells assessed as reduction in NADase activity at 5 uM in presence of NAD+ incubated for 60 mins by HPLC analysis
[5] = target: T2, NAD(+) hydrolase SARM1 (Homo sapiens); test: Inhibition of StrepTag-tagged human SARM1 TIR (561 to 724 residues) expressed in NRK1-HEK293T cells assessed as reduction in NADase activity by measuring NAD consumption at 150 uM pre-incubated up to 120 mins before NAD+ addition and further incubated for 60 mins by HPLC analysis relative to control; set-up: scale not given: the % may be the effect or the level left
[6] = target: T2, NAD(+) hydrolase SARM1 (Homo sapiens); test: Substrate activity at StrepTag-tagged human SARM1 TIR (561 to 724 residues) expressed in HEK293T cells assessed as increase in NADase activity at 100 uM in presence of NAD+ incubated for 60 mins by HPLC analysis
[7] = target: T2, NAD(+) hydrolase SARM1 (Homo sapiens); test: Inhibition of StrepTag-tagged human SARM1 TIR (561 to 724 residues) expressed in HEK293T cells assessed as reduction in NADase activity at 1 mM in presence of NAD+ incubated for 60 mins by HPLC analysis
[8] = target: T1, NAD(+) hydrolase SARM1 (Mus musculus); test: Inhibition of SARM1 in CD1 mouse DRG cells assessed as inhibition of axon degeneration measured during 6 to 24 hrs by SEM micrography
[9] = target: T1, NAD(+) hydrolase SARM1 (Mus musculus); test: Inhibition of SARM1 in CD1 mouse DRG cells assessed as inhibition of axon degeneration measured during 6 to 24 hrs by drop culture assay
[10] = target: T1, NAD(+) hydrolase SARM1 (Mus musculus); test: Inhibition of SARM1 in CD1 mouse DRG cells assessed as inhibition of axon degeneration by measuring reduction in NAD+ consumption rate added 30 mins prior to D4-Nam addition and measured 4 hrs post D4-Nam addition by LC-MS/MS analysis
[11] = target: T2, NAD(+) hydrolase SARM1 (Homo sapiens); test: Inhibition of StrepTag-tagged human SARM1 TIR (561 to 724 residues) expressed in HEK293T cells assessed as reduction in NADase activity at 5 uM in presence of NAD+ incubated for 60 mins by LC-MS/MS analysis
[12] = target: T2, NAD(+) hydrolase SARM1 (Homo sapiens); test: Inhibition of StrepTag-tagged human SARM1 TIR (561 to 724 residues) expressed in HEK293T cells in presence of NAD+ incubated for 60 mins by chemiluminescence based NAD+ Glo assay

CCN(CC)c1ccc(C=C2C(=O)NC(=S)NC2=O)cc1
inhibition [1]: Active

O=C(c1ccccc1)C1C(c2ccccc2)C1[N+](=O)[O-] (stereo unspecified)
inhibition [1]: Active

Cc1cccc2c1c1ccc3c(c1n2C)C(=O)C=CC3=O
inhibition [1]: Active

NC(=O)c1ccccc1
Activity [2]: inactive

COc1ccc2[nH]c([S+]([O-])Cc3ncc(C)c(OC)c3C)nc2n1 (stereo unspecified)
Activity [3]: < 50%
inhibition [4]: Active
Activity [5]: 50 to 75%

COC(=O)CC1(C(=O)OC)Nc2cc(Cl)c(Cl)cc2S(=O)(=O)N1O (stereo unspecified)
inhibition [1]: Active

Cc1ccc([S+]([O-])c2ccc([N+](=O)[O-])c3nonc23)cc1 (stereo unspecified)
inhibition [1]: Active

COc1ccc2[nH]c([S+]([O-])Cc3ncc(C)c(OC)c3C)nc2c1 (stereo unspecified)
inhibition [4]: Active

Cc1c(OCC(F)(F)F)ccnc1C[S@@+]([O-])c1nc2ccccc2[nH]1
inhibition [4]: Active

NC(=O)C1=CN([C@@H]2O[C@H](COP(=O)(O)OP(=O)(O)OC[C@H]3O[C@@H](n4cnc5c(N)ncnc54)[C@H](OP(=O)(O)O)[C@@H]3O)[C@@H](O)[C@H]2O)C=CC1
Activity [2]: Active
Activity [6]: Active

CC1(C)CC[C@]2(C(=O)n3ccnc3)CC[C@]3(C)[C@H](C(=O)C=C4[C@@]5(C)C=C(C#N)C(=O)C(C)(C)[C@@H]5CC[C@]43C)[C@@H]2C1
inhibition [1]: Active

Oc1cc(CNC2CCCCC2)c(O)cc1CNC1CCCCC1
inhibition [1]: Active

COc1ccc2c(c1)c1ccc3c(c1n2C)C(=O)C=CC3=O
inhibition [1]: Active

CCOC(=O)/C(C#N)=C1\SS/C(=C(/C#N)C(=O)OCC)S1
inhibition [1]: Active

Cc1c(OCC(F)(F)F)ccnc1CS(=O)(=O)c1nc2ccccc2[nH]1
Activity [3]: > 75%
Activity [5]: > 75%

NC(=S)c1cccnc1
Activity [2]: inactive

Cn1c2ccccc2c2ccc3c(c21)C(=O)C=CC3=O
inhibition [1]: Active

Cc1c(OCC(F)(F)F)ccnc1C[S+]([O-])c1nc2ccccc2[nH]1 (stereo unspecified)
inhibition [4]: Active

NC(=O)C1=CN([C@@H]2O[C@H](COP(=O)(O)OP(=O)(O)OC[C@H]3O[C@@H](n4cnc5c4ncn4ccnc54)[C@H](O)[C@@H]3O)[C@@H](O)[C@H]2O)CC=C1
Activity [2]: inactive
inhibition [7]: Active

CC(=O)c1cccnc1
Activity [2]: inactive

Cc1cnc(C[S@@+]([O-])c2nc3ccccc3[nH]2)c(C)c1OCC(F)(F)F
Activity [3]: < 50%
Activity [5]: > 75%

O=C1N=C(c2ccccc2)C(c2ccccc2)N1 (stereo unspecified)
inhibition [1]: Active

O=[N+]([O-])c1ccc(Sc2cccc[n+]2[O-])c2nonc12
inhibition [1]: Active

CN(C)c1n/c(=N/Cc2ccco2)ss1
inhibition [8]: Active
inhibition [9]: Active
inhibition [1]: Active
inhibition [10]: Dose-dependent effect
inhibition [11]: Active

NC(=O)C1=CN([C@@H]2O[C@H](COP(=O)(O)OP(=O)(O)OC[C@H]3O[C@@H](n4cnc5c(=O)[nH]cnc54)[C@H](O)[C@@H]3O)[C@@H](O)[C@H]2O)CC=C1
Activity [2]: Active

NC(=O)c1ccc(N)nc1
Activity [2]: inactive

COCCCOc1ccnc(C[S+]([O-])c2nc3ccccc3[nH]2)c1C (stereo unspecified)
inhibition [4]: Active

Cc1cc(O)c(-c2cc(O)c(C)cc2O)cc1O
inhibition [1]: Active

COc1cnc2[nH]c([S+]([O-])Cc3ncc(C)c(OC)c3C)nc2c1 (stereo unspecified)
Activity [3]: 50 to 75%
Activity [5]: > 75%

COc1ccnc(C[S+]([O-])c2nc3cc(OC(F)F)ccc3[nH]2)c1OC (stereo unspecified)
inhibition [4]: Active

Cc1c(OCC(F)(F)F)ccnc1CSc1nc2ccccc2[nH]1
Activity [3]: > 75%
Activity [5]: > 75%

CN(C)c1n/c(=N/c2cccc(Cl)c2)ss1
inhibition [1]: Active
inhibition [11]: Active
inhibition [12]: Active

Cc1ccc2c(c1)c1ccc3c(c1n2C)C(=O)C=CC3=O
inhibition [1]: Active

NC(=O)C1CCCc2c1[nH]c1ccc(Cl)cc21 (stereo unspecified)
Activity [2]: inactive
inhibition [7]: Active

O=C1NC(=O)C(=Cc2csc3ccccc23)C(=O)N1
inhibition [1]: Active

CC1=C(O)C(=O)C=C2C1=CC=C1[C@@]2(C)CC[C@@]2(C)[C@@H]3C[C@](C)(C(=O)O)CC[C@]3(C)CC[C@]12C
inhibition [1]: Active

COc1ccc2c(c1)nc([S+]([O-])Cc1ncc(C)c(OC)c1C)n2C (stereo unspecified)
Activity [3]: > 75%
Activity [5]: > 75%

O=Cc1cccnc1
Activity [2]: inactive

O=C1NC(=O)C(=Cc2ccc3ccccc3c2)C(=O)N1
inhibition [1]: Active

CCOc1ccc(NC(=O)C2CCCN(C)C2)cc1 (stereo unspecified)
inhibition [1]: Active
